From patent publication US20100317607A1, “USE OF COMPOUNDS FOR PREPARING ANTI-TUBERCULOSIS AGENTS” (INFECTIOUS DISEASE RESEARCH INSTITUTE, priority 2007, published 2010) come the findings set out here.

The assay relates to H37Rv strain of M. tuberculosis. Description: Alamar Blue Susceptibility Test (MABA). The following applies: Mycobacterium tuberculosis; H37Rv strain of M. tuberculosis; Alamar Blue; read-out: MABA (TB growth inhibition, colourimetric assay). The class given is cell-based.

Values after ≈ are worked out from the molar mass of the structure shown. Structures can show the parent of a compound that is named as a salt.

As to `FC(F)(F)c1ccc(CNc2nc(N3CCCCC3)c3ccccc3n2)cc1` [Compound 109, 4-(Piperidin-1-yl)-N-(4-(trifluoromethyl)benzyl)quinazolin-2-amine hydrochloride], the MIC was in the range of 10 to 50 µM.

As to `Clc1ccc(CNc2nc(N3CCCCC3)c3ccccc3n2)cc1` [Compound 110, N-(4-Chlorobenzyl)-4-(piperidin-1-yl)quinazolin-2-amine hydrochloride], the MIC lay within 10 to 50 µM.

Turning to `Fc1ccc(CNc2nc(N3CCCCC3)c3ccccc3n2)cc1` [Compound 111, N-(4-Fluorobenzyl)-4-(piperidin-1-yl)quinazolin-2-amine hydrochloride], the MIC was 10 to 50 µM.

On to `c1ccc2c(c1)CCN(c1nc(N3CCCCC3)c3ccccc3n1)C2` [Compound 113, 2-(3,4-Dihydroisoquinolin-2(1H)-yl)-4-(piperidin-1-yl)quinazoline hydrochloride], for which the MIC is 10 to 50 µM.

For `Fc1ccc(CNc2nc(Nc3ccc(F)cc3)nc3ccccc23)cc1` [Compound 118, N^4-(4-Fluorobenzyl)-N^2-(4-fluorophenyl)quinazoline-2,4-diamine hydrochloride], the MIC was 10 to 50 µM.

`Fc1ccc(CNc2nc(NCc3ccc(F)cc3)c3ccccc3n2)cc1` [Compound 119, N^2,N^4-bis(4-Fluorobenzyl)quinazoline-2,4-diamine hydrochloride]: the MIC was in the range of 10 to 50 µM.

In the case of `CC(C)(Nc1nc(N2CCCC2)nc2ccccc12)c1ccc(F)cc1` [Compound 121, N-(2-(4-Fluorophenyl)propan-2-yl)-2-(pyrrolidin-1-yl)quinazolin-4-amine], the MIC lay within 10 to 50 µM (≈ 3.5 to 17.5 µg/mL).

Consider `c1ccc(C2(Nc3nc(N4CCCCC4)nc4ccccc34)CC2)cc1` [Compound 122, N-(1-Phenylcyclopropyl)-2-(piperidin-1-yl)quinazolin-4-amine], for which the MIC lay within 10 to 50 µM (≈ 3.44 to 17.2 µg/mL).

Consider `c1ccc(C2(Nc3nc(N4CCCC4)nc4ccccc34)CC2)cc1` [Compound 123, N-(1-Phenylcyclopropyl)-2-(pyrrolidin-1-yl)quinazolin-4-amine], for which the MIC lay within 10 to 50 µM (≈ 3.3 to 16.5 µg/mL).

With `c1ccc(C2(Nc3nc(N4CCCC4)nc4ccccc34)CCCCC2)cc1` [Compound 125, N-(1-Phenylcyclohexyl)-2-(pyrrolidin-1-yl)quinazolin-4-amine], the MIC lay within 50 to 128 µM (≈ 18.6 to 47.7 µg/mL).

As for `Fc1ccc(CNc2nc(NCc3ccccc3)c3ccccc3n2)cc1` [Compound 126, N^4-Benzyl-N^2-(4-fluorobenzyl)quinazoline-2,4-diamine hydrochloride], the MIC is 10 to 50 µM.

On to `COc1ccc(CNc2nc(NCc3ccccc3)c3ccccc3n2)cc1` [Compound 129, N^4-Benzyl-N^2-(4-methoxybenzyl)quinazoline-2,4-diamine hydrochloride], for which the MIC lay within 10 to 50 µM.

On to `Fc1ccc(CNc2nc(N3CCC(F)(F)CC3)nc3ccccc23)cc1` [Compound 137, 2-(4,4-Difluoropiperidin-1-yl)-N-(4-fluorobenzyl)quinazolin-4-amine], for which the MIC was 10 to 50 µM (≈ 3.72 to 18.6 µg/mL).

On to `CCC(CC)(Nc1nc(N2CCCCC2)nc2ccccc12)c1ccccc1` [Compound 138, N-(3-Phenylpentan-3-yl)-2-(piperidin-1-yl)quinazolin-4-amine], for which the MIC was under 10 µM.

`O=C1CCN(c2nc(NCc3ccccc3)c3ccccc3n2)CC1` [Compound 139, 1-(4-(Benzylamino)quinazolin-2-yl)piperidin-4-one]: the MIC was under 10 µM.

`c1ccc(CNc2nc(N3CCSCC3)nc3ccccc23)cc1` [Compound 140, N-Benzyl-2-thiomorpholinoquinazolin-4-amine hydrochloride]: the MIC is under 10 µM.

As for `Clc1ccc(C2(Nc3nc(N4CCCCC4)nc4ccccc34)CC2)cc1` [Compound 141, N-(1-(4-Chlorophenyl)cyclopropyl)-2-(piperidin-1-yl)quinazolin-4-amine hydrochloride], the MIC lay within 10 to 50 µM.

Regarding `Clc1ccc(C2(Nc3nc(N4CCCC4)nc4ccccc34)CC2)cc1` [Compound 142, N-(1-(4-Chlorophenyl)cyclopropyl)-2-(pyrrolidin-1-yl)quinazolin-4-amine hydrochloride], the MIC was 10 to 50 µM.
